PubChem BioAssay (NCI)
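Cultured in 96-well plates, cells were exposed to test compound for 48 hours across five concentrations. Abbreviation: GI50, concentration required for 50% inhibition of growth. TGI marks complete inhibition of growth.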

Legend:
Test in all cases: inhibition of tumour cell growth, NCI panel, 48 h
SNB-75 CNS = tested on: SNB-75 CNS
SK-MEL-28 melanoma = tested on: SK-MEL-28 melanoma
NCI-H226 lung = tested on: NCI-H226 lung
HCT-15 colon = tested on: HCT-15 colon
SK-MEL-2 melanoma = tested on: SK-MEL-2 melanoma
DU-145 prostate = tested on: DU-145 prostate
SN12C renal = tested on: SN12C renal
EKVX NSCLC = tested on: EKVX NSCLC

Compound: Fc1ccc(-c2c(-c3ccncc3)[nH]c3nccnc23)cc1
- GI50 (SNB-75 CNS): 2.66 µM
- TGI (SNB-75 CNS): > 25 µM
- GI50 (SK-MEL-28 melanoma): 16.2 µM
- TGI (SK-MEL-28 melanoma): > 25 µM
- GI50 (NCI-H226 lung): 6.76 µM
- TGI (NCI-H226 lung): > 25 µM
- GI50 (HCT-15 colon): 8.28 µM
- TGI (HCT-15 colon): > 25 µM
- GI50 (SK-MEL-2 melanoma): 13.6 µM
- TGI (SK-MEL-2 melanoma): > 25 µM
- GI50 (DU-145 prostate): 7.32 µM
- TGI (DU-145 prostate): > 22 µM
- GI50 (SN12C renal): 7.84 µM
- TGI (SN12C renal): > 25 µM

Compound: Oc1cccc(-c2nc(-c3ccccc3)[nH]c2-c2ccncc2)c1
- GI50 (EKVX NSCLC): > 25 µM
- TGI (EKVX NSCLC): > 25 µM
- GI50 (SNB-75 CNS): 9.93 µM
- TGI (SNB-75 CNS): > 23.7 µM
- GI50 (SK-MEL-28 melanoma): 2.03 µM
- TGI (SK-MEL-28 melanoma): > 18.5 µM
- GI50 (NCI-H226 lung): > 19 µM
- TGI (NCI-H226 lung): > 25 µM
- GI50 (HCT-15 colon): 7.36 µM
- TGI (HCT-15 colon): > 20.3 µM
- GI50 (SK-MEL-2 melanoma): 6.91 µM
- TGI (SK-MEL-2 melanoma): 18.9 µM
- GI50 (DU-145 prostate): 16.3 µM
- TGI (DU-145 prostate): > 25 µM
- GI50 (SN12C renal): 15.9 µM
- TGI (SN12C renal): > 25 µM

Compound: CCN1C(=O)N(CC)C2C1NN=c1s/c(=C\c3ccc(OC)cc3)c(=O)n12 (stereo not given)
- GI50 (EKVX NSCLC): 0.44 µM
- TGI (EKVX NSCLC): > 100 µM
- GI50 (SNB-75 CNS): 0.0442 µM
- TGI (SNB-75 CNS): 2.84 µM
- GI50 (SK-MEL-28 melanoma): 0.953 µM
- TGI (SK-MEL-28 melanoma): > 100 µM
- GI50 (NCI-H226 lung): 1.72 µM
- GI50 (HCT-15 colon): 0.104 µM
- TGI (HCT-15 colon): > 100 µM
- GI50 (SK-MEL-2 melanoma): 1.66 µM
- TGI (SK-MEL-2 melanoma): > 100 µM
- GI50 (DU-145 prostate): 0.323 µM
- TGI (DU-145 prostate): > 29.8 µM
- GI50 (SN12C renal): 0.454 µM
- TGI (SN12C renal): > 100 µM

Compound: O=C1N=C(Nc2nc(-c3csc(NC4=NC(=O)/C(=C\c5ccc(Cl)cc5)S4)n3)cs2)S/C1=C/c1ccc(Cl)cc1
- GI50 (EKVX NSCLC): 12.3 µM
- TGI (EKVX NSCLC): > 50 µM
- GI50 (SK-MEL-28 melanoma): 42.8 µM
- TGI (SK-MEL-28 melanoma): > 50 µM
- GI50 (NCI-H226 lung): 3.79 µM
- TGI (NCI-H226 lung): 22.3 µM
- GI50 (HCT-15 colon): 40.4 µM
- TGI (HCT-15 colon): > 50 µM
- GI50 (SK-MEL-2 melanoma): > 50 µM
- TGI (SK-MEL-2 melanoma): > 50 µM
- GI50 (DU-145 prostate): 17 µM
- TGI (DU-145 prostate): > 50 µM
- GI50 (SN12C renal): 7.85 µM
- TGI (SN12C renal): 33.7 µM

Compound: O=C1NC(=O)C(c2c[nH]c3ccccc23)=C1c1ccccc1
- GI50 (SNB-75 CNS): 10.3 µM
- TGI (SNB-75 CNS): > 25 µM
- GI50 (SK-MEL-28 melanoma): > 25 µM
- TGI (SK-MEL-28 melanoma): > 25 µM
- GI50 (NCI-H226 lung): > 20.1 µM
- TGI (NCI-H226 lung): > 25 µM
- GI50 (HCT-15 colon): > 25 µM
- TGI (HCT-15 colon): > 25 µM
- GI50 (SK-MEL-2 melanoma): > 25 µM
- TGI (SK-MEL-2 melanoma): > 25 µM
- GI50 (DU-145 prostate): > 25 µM
- TGI (DU-145 prostate): > 25 µM
- GI50 (SN12C renal): > 25 µM
- TGI (SN12C renal): > 25 µM

Compound: COc1cc(NC(=O)c2ccccc2Nc2ccnc(C(F)(F)F)c2)cc(OC)c1OC
- GI50 (EKVX NSCLC): 48.3 µM
- TGI (EKVX NSCLC): > 100 µM
- GI50 (SNB-75 CNS): 34.8 µM
- TGI (SNB-75 CNS): > 100 µM
- GI50 (SK-MEL-28 melanoma): > 100 µM
- TGI (SK-MEL-28 melanoma): > 100 µM
- GI50 (NCI-H226 lung): 77.7 µM
- TGI (NCI-H226 lung): > 100 µM
- GI50 (HCT-15 colon): 56.1 µM
- TGI (HCT-15 colon): > 100 µM
- GI50 (SK-MEL-2 melanoma): 51.1 µM
- TGI (SK-MEL-2 melanoma): > 100 µM
- GI50 (DU-145 prostate): 95.4 µM
- TGI (DU-145 prostate): > 100 µM
- GI50 (SN12C renal): 52.9 µM
- TGI (SN12C renal): > 100 µM

Compound: Cc1cn2c(/C=C3/C(=O)Nc4ccc(Cl)cc43)c(C)nc2s1
- GI50 (EKVX NSCLC): 12.5 µM
- TGI (EKVX NSCLC): > 100 µM
- GI50 (SNB-75 CNS): 16.3 µM
- TGI (SNB-75 CNS): 29.8 µM
- GI50 (SK-MEL-28 melanoma): 17 µM
- TGI (SK-MEL-28 melanoma): > 54.7 µM
- GI50 (NCI-H226 lung): 11 µM
- TGI (NCI-H226 lung): > 90.6 µM
- GI50 (HCT-15 colon): < 0.0403 µM
- TGI (HCT-15 colon): > 92.8 µM
- GI50 (SK-MEL-2 melanoma): 21.4 µM
- TGI (SK-MEL-2 melanoma): > 100 µM
- GI50 (DU-145 prostate): 0.84 µM
- TGI (DU-145 prostate): > 39.3 µM
- TGI (SN12C renal): 65 µM

Compound: COc1ccc2c(c1)N(CCO)C1=C(C(=O)OC1)C2c1ccc(OC)c(OC)c1 (stereo not given)
- GI50 (EKVX NSCLC): 6.52 µM
- TGI (EKVX NSCLC): > 100 µM
- GI50 (SNB-75 CNS): 2.7 µM
- TGI (SNB-75 CNS): > 100 µM
- GI50 (SK-MEL-28 melanoma): 3.33 µM
- TGI (SK-MEL-28 melanoma): > 100 µM
- GI50 (NCI-H226 lung): 2.29 µM
- TGI (NCI-H226 lung): 9.55 µM
- GI50 (HCT-15 colon): 3.09 µM
- TGI (HCT-15 colon): > 100 µM
- GI50 (SK-MEL-2 melanoma): 2.66 µM
- TGI (SK-MEL-2 melanoma): 11.3 µM
- GI50 (DU-145 prostate): 3.01 µM
- TGI (DU-145 prostate): 9.38 µM
- GI50 (SN12C renal): 5.8 µM
- TGI (SN12C renal): > 100 µM
